2 compounds from US6348464B1, “Pyrrolecarbonylimino derivatives as naaladase inhibitors” (Guilford Pharmaceuticals, Inc., priority 1999, dated 2002) can be followed below.

In one test the test system is cortical cell cultures. As to the kind of experiment: In vitro assay on ischemia (potassium cyanide and 2-deoxyglucose insult). It counts as cell-based. To be noted: 1 h, read-out: EC50, concentration required to cause a 50% reduction in glutamate toxicity following an ischemic insult. The method, then: To examine the in vitro effect of the compounds of formula I on ischemia, cortical cell cultures were treated with various compounds of formula I during an ischemic insult utilizing potassium cyanide and 2-deoxyglucose, and for one hour thereafter (for experimental details, see Vornov et al., J. Neurochem., Vol. 65, No. 4, pp. 1681-1691 (1995)). Neuroprotective effect is expressed as EC50, the concentration of the compound which is required to cause a 50% reduction in glutamate toxicity following an ischemic insult.

A further test deals with T1, NAALADase (Homo sapiens, UniProt Q04609).
T1 construct: from tissue
T1 sequence (Q04609 whole entry): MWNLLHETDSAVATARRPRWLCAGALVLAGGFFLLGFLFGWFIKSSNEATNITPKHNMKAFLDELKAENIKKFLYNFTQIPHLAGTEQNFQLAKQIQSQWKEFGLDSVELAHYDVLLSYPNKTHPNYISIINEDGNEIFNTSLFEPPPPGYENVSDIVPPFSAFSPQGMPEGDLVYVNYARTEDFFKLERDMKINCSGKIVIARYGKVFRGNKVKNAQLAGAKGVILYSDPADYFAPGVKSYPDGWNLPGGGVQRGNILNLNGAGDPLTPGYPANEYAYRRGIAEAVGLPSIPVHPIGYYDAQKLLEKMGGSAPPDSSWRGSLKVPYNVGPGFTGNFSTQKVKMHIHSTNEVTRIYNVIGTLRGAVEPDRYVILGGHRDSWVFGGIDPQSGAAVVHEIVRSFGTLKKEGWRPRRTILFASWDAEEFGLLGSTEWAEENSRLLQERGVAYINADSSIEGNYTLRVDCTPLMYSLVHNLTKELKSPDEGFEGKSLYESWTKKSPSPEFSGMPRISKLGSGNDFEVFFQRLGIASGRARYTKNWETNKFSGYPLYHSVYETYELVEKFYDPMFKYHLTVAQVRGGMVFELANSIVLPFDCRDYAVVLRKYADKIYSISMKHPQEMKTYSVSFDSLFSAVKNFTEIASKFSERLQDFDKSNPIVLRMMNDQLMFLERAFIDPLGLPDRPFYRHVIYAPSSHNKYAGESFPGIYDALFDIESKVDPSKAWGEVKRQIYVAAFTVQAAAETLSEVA
As to the kind of experiment: In vitro inhibition of NAALADase activity. It counts as biochemical. The settings on record: 3-H-NAAG substrate, 37° C.; read-out: K1 (nM), in vitro inhibition of NAALADase activity. The method, then: Protocol For Assaying In Vitro Inhibition of NAALADase Activity
The following were combined in each assay tube: 100 μL of 10 mM CoCl2, 250 μL of 200 mM Tris chloride, 100 μL tissue, 100 μL of 10 mM NAALADase inhibitor in Bakers H2O, and Bakers H2O to make a total volume of 950 μL. Each tube was then incubated for 10 minutes in a 37° C. water bath. 50 μL of 3-H-NAAG was then added to each assay tube and incubated for an additional 15 minutes in a 37° C. water bath. The assay was stopped by adding 1.0 ml of 0.1 M sodium phosphate.
Glutamate released by the action of the NAALADase enzyme was separated from the assay solution using an anion exchange resin. The resin was equilibrated to 25° C., 2.0 ml of the resin was added to a Pasteur pipette pre-loaded with a single glass bead, and each column was washed twice with distilled H2O. A column was placed over a scintillation vial and 200 μL of an assay sample was loaded onto the column. After draining, glutamate was eluted using two 1.0 ml washes of 1 M formic acid. After addition of 10 ml of scintillation cocktail, each sample was counted for 2 minutes on a scintillation counter.

Counter-ions that a name gives are not always drawn. Like-named read-outs stand apart in the source and are kept apart here. Some results are limits rather than exact numbers.

Turning to `O=C(Nc1ccc(S(=O)(=O)O)c2cc(S(=O)(=O)O)cc(S(=O)(=O)O)c12)c1cccc([N+](=O)[O-])c1` [8-(3-nitrobenzamido)-1,3,5-naphthalenetrisulfonic acid], in the test with cortical cell cultures (cortical cell cultures, treated during potassium cyanide and 2-deoxyglucose insult and for one hour thereafter), the EC50 was over 1000 nM. Also, the Ki on NAALADase is 20200 nM.
In the case of `Cc1ccc(C(=O)Nc2ccc(S(=O)(=O)O)c3cc(S(=O)(=O)O)cc(S(=O)(=O)O)c23)cc1NC(=O)c1cccc(NC(=O)Nc2cccc(C(=O)Nc3cc(C(=O)Nc4ccc(S(=O)(=O)O)c5cc(S(=O)(=O)O)cc(S(=O)(=O)O)c45)ccc3C)c2)c1` [Suramin, sodium salt, 8,8′-[carbonylbis[imino-3,1-phenylenecarbonylimino (4-methyl-3,1-phenylene)carbonylimino]]bis-1,3,5-naphthalenetrisulfonic acid hexasodium salt], the EC50 in the test on cortical cell cultures came to 24.7 nM. Moreover, the Ki at NAALADase worked out at 527 nM.
